Results taken from the supplement of paper PMC10307832.

What follows are cell lines tested with C=CCn1c(=O)c2cnc(Nc3ccc(N4CCN(C)CC4)cc3)nc2n1-c1cccc(C(C)(C)O)n1 [Adavosertib] + C[C@@H](Oc1cc(-c2cnn(C3CCNCC3)c2)cnc1N)c1c(Cl)ccc(F)c1Cl [Crizotinib] (partner 1 µM) (assay: relative viability (nuclei count vs DMSO), 5 days (fraction); higher = more cells survive). Details: first compound 0.3162 µM.
Procedure, shortened: (§1)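 One day after seeding in 1536-well plates, lung cancer cell lines were dosed by pin tool. Dosing was either single-drug or a fixed anchor-drug dose plus five library-drug doses (not always all listed) in √10 steps. After 5 days, nuclei were stained in one fix-and-stain step and counted on 4× images, and relative viability is the nuclei count of treated wells over that of vehicle wells, given as the median of duplicate plates.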

| Cell Line | relative viability |
| --- | --- |
| LOU-NH91 | 0.726 |
| LU99A | 0.461 |
| LXF-289 | 0.849 |
| NCI-H23 | 0.432 |
| NCI-H322M | 0.743 |
| NCI-H358 | 0.309 |
| NCI-H441 | 0.568 |
| NCI-H460 | 0.627 |
| NCI-H1299 | 0.49 |
| NCI-H1650 | 1.17 |
| NCI-H1703 | 0.103 |
| NCI-H2170 | 1.35 |

These cell lines were tested with C=CCn1c(=O)c2cnc(Nc3ccc(N4CCN(C)CC4)cc3)nc2n1-c1cccc(C(C)(C)O)n1 [Adavosertib] + C[C@]1(O)C[C@@H](c2nc(-c3ccc4ccc(-c5ccccc5)nc4c3)c3c(N)nccn32)C1 [Linsitinib] (partner 1 µM) in the same assay as above. Details: first compound 0.01 µM.
Procedure, shortened: as §1

| Cell Line | relative viability |
| --- | --- |
| 201T | 1.04 |
| A549 | 0.654 |
| A-427 | 1.09 |
| ABC-1 | 1.03 |
| BEN | 0.97 |
| CAL-12T | 0.822 |
| COR-L23 | 0.965 |
| COR-L 105 | 0.818 |
| Calu-6 | 0.906 |
| EBC-1 | 0.91 |
| EKVX | 0.941 |
| EPLC-272H | 1.12 |
| H3255 | 0.967 |
| HARA | 0.907 |
| HCC-15 | 0.878 |
| HCC-44 | 0.628 |
| HCC-78 | 0.597 |
| HCC-366 | 0.62 |

| Cell Line | relative viability |
| --- | --- |
| HCC-827 | 0.985 |
| HOP-62 | 0.981 |
| IA-LM | 0.687 |
| LC-2-ad | 0.773 |
| LCLC-103H | 1.07 |
| LK-2 | 0.761 |
| LOU-NH91 | 1 |
| LU99A | 0.575 |
| LXF-289 | 0.936 |
| NCI-H23 | 0.53 |
| NCI-H358 | 0.747 |
| NCI-H441 | 0.552 |
| NCI-H460 | 0.971 |
| NCI-H1299 | 0.963 |
| NCI-H1395 | 1.17 |
| NCI-H1703 | 1.05 |
| NCI-H1793 | 0.822 |

Same assay, conditions: first compound 0.03162 µM

| Cell Line | relative viability |
| --- | --- |
| 201T | 0.957 |
| A549 | 0.553 |
| A-427 | 1.05 |
| ABC-1 | 0.849 |
| BEN | 0.886 |
| CAL-12T | 0.818 |
| COR-L23 | 0.904 |
| COR-L 105 | 1.13 |
| Calu-6 | 0.917 |
| EBC-1 | 0.962 |
| EKVX | 0.966 |
| EPLC-272H | 1.14 |
| H3255 | 1.01 |
| HARA | 1.06 |
| HCC-15 | 0.876 |
| HCC-44 | 0.659 |
| HCC-78 | 0.422 |
| HCC-366 | 0.802 |
| HCC-827 | 0.974 |

| Cell Line | relative viability |
| --- | --- |
| HOP-62 | 1.02 |
| IA-LM | 0.749 |
| LC-2-ad | 0.883 |
| LCLC-97TM1 | 0.19 |
| LCLC-103H | 1.02 |
| LK-2 | 0.742 |
| LOU-NH91 | 0.938 |
| LU99A | 0.656 |
| LXF-289 | 0.97 |
| NCI-H23 | 0.612 |
| NCI-H322M | 0.789 |
| NCI-H358 | 0.675 |
| NCI-H441 | 0.5 |
| NCI-H460 | 0.777 |
| NCI-H1299 | 0.985 |
| NCI-H1395 | 1.18 |
| NCI-H1703 | 0.822 |
| NCI-H1793 | 0.765 |

Same assay, conditions: first compound 0.1 µM

| Cell Line | relative viability |
| --- | --- |
| 201T | 0.941 |
| A549 | 0.634 |
| A-427 | 1.05 |
| ABC-1 | 0.647 |
| BEN | 0.921 |
| CAL-12T | 0.939 |
| COR-L23 | 0.745 |
| COR-L 105 | 0.976 |
| Calu-6 | 1.02 |
| EBC-1 | 0.994 |
| EKVX | 0.989 |
| EPLC-272H | 0.958 |
| H3255 | 0.993 |
| HARA | 0.98 |
| HCC-15 | 1.05 |
| HCC-44 | 0.683 |
| HCC-78 | 0.522 |
| HCC-366 | 0.659 |
| HCC-827 | 1.03 |

| Cell Line | relative viability |
| --- | --- |
| HOP-62 | 1.09 |
| IA-LM | 0.692 |
| LC-2-ad | 0.781 |
| LCLC-97TM1 | 0.17 |
| LCLC-103H | 1.14 |
| LK-2 | 0.522 |
| LOU-NH91 | 0.964 |
| LU99A | 0.499 |
| LXF-289 | 0.944 |
| NCI-H23 | 0.444 |
| NCI-H322M | 0.982 |
| NCI-H358 | 0.547 |
| NCI-H441 | 0.496 |
| NCI-H460 | 0.594 |
| NCI-H1299 | 0.996 |
| NCI-H1395 | 1.2 |
| NCI-H1703 | 1.01 |
| NCI-H1793 | 0.915 |

Same assay, conditions: first compound 0.3162 µM

| Cell Line | relative viability |
| --- | --- |
| 201T | 1.08 |
| A549 | 0.52 |
| A-427 | 1.03 |
| ABC-1 | 0.682 |
| BEN | 1.06 |
| CAL-12T | 0.944 |
| COR-L23 | 0.209 |
| COR-L 105 | 0.906 |
| Calu-6 | 0.866 |
| EBC-1 | 1.18 |
| EKVX | 1.07 |
| EPLC-272H | 0.878 |
| H3255 | 0.957 |
| HARA | 0.97 |
| HCC-15 | 0.989 |
| HCC-44 | 0.794 |
| HCC-78 | 0.562 |
| HCC-366 | 0.774 |
| HCC-827 | 0.991 |

| Cell Line | relative viability |
| --- | --- |
| HOP-62 | 1.03 |
| IA-LM | 0.807 |
| LC-2-ad | 0.729 |
| LCLC-97TM1 | 0.169 |
| LCLC-103H | 1.07 |
| LK-2 | 0.424 |
| LOU-NH91 | 0.871 |
| LU99A | 0.417 |
| LXF-289 | 1.02 |
| NCI-H23 | 0.29 |
| NCI-H322M | 0.535 |
| NCI-H358 | 0.374 |
| NCI-H441 | 0.329 |
| NCI-H460 | 0.285 |
| NCI-H1299 | 0.95 |
| NCI-H1395 | 0.955 |
| NCI-H1703 | 0.414 |
| NCI-H1793 | 0.869 |
